The NIST ThermoML archive (doi:10.1016/j.fluid.2015.01.002)

Key:
[1] = 298.15 K; 101.33 kPa; Liquid; Vibrating tube method
[2] = refractive index (Na D-line) (dimensionless); conditions: 298.15 K; 101.33 kPa; Liquid; Standard Abbe refractometry
[3] = xn = mol fraction of the nth substance listed; conditions: 298.15 K, 101 kPa, Liquid, Vibrating tube method
[4] = refractive index (Na D-line) (dimensionless); xn = mol fraction of the nth substance listed; conditions: 298.15 K, 101 kPa, Liquid, Standard Abbe refractometry

Cc1ccc(C)cc1 [1,4-dimethylbenzene]
Conditions | mass density [kg/m3] | refractive index
[1] | 856.78 | –
[2] | – | 1.49281

Cc1ccc(C)cc1 [1,4-dimethylbenzene] + CC#N
Conditions | mass density, [3] [kg/m3] | refractive index, [4]
x1 = 0.05 | 785.5 | 1.3575
x1 = 0.1 | 793.4 | 1.3717
x1 = 0.2 | 806.77 | 1.3975
x1 = 0.3 | 817.69 | 1.4181
x1 = 0.4 | 826.78 | 1.4353
x1 = 0.5 | 834.35 | 1.4498
x1 = 0.6 | 840.73 | 1.4642
x1 = 0.7 | 846.09 | 1.4757
x1 = 0.8001 | 850.43 | 1.4835
x1 = 0.9001 | 854.1 | 1.4889
x1 = 0.9503 | 855.52 | 1.4913

COCCO [2-methoxyethan-1-ol]
Conditions | mass density [kg/m3] | refractive index
[1] | 959.73 | –
[2] | – | 1.39981

COCCO [2-methoxyethan-1-ol] + Cc1ccc(C)cc1
Conditions | mass density, [3] [kg/m3] | refractive index, [4]
x2 = 0.0499 | 952.02 | 1.4069
x2 = 0.0999 | 944.39 | 1.4136
x2 = 0.1999 | 930.07 | 1.4253
x2 = 0.3 | 917.28 | 1.4367
x2 = 0.3999 | 905.75 | 1.4462
x2 = 0.5001 | 895.38 | 1.4557
x2 = 0.6 | 885.92 | 1.4641
x2 = 0.6999 | 877.19 | 1.4717
x2 = 0.7999 | 869.23 | 1.4793
x2 = 0.8999 | 862.2 | 1.4862
x2 = 0.9499 | 859.28 | 1.4895

COCCO [2-methoxyethan-1-ol] + Cc1ccccc1
Conditions | mass density, [3] [kg/m3] | refractive index, [4]
x2 = 0.05 | 953.61 | 1.4048
x2 = 0.0998 | 947.42 | 1.4113
x2 = 0.1999 | 935.21 | 1.4233
x2 = 0.3001 | 923.65 | 1.434
x2 = 0.4 | 912.84 | 1.4437
x2 = 0.4999 | 902.65 | 1.453
x2 = 0.6 | 893.14 | 1.4616
x2 = 0.7001 | 884.22 | 1.4701
x2 = 0.8 | 875.94 | 1.4782
x2 = 0.9 | 868.48 | 1.486
x2 = 0.9498 | 865.12 | 1.4899

COCCO [2-methoxyethan-1-ol] + c1ccccc1
Conditions | mass density, [3] [kg/m3] | refractive index, [4]
x2 = 0.05 | 955.11 | 1.4054
x2 = 0.0998 | 950.35 | 1.4105
x2 = 0.2001 | 940.54 | 1.4193
x2 = 0.2998 | 930.95 | 1.4286
x2 = 0.4 | 921.55 | 1.4385
x2 = 0.4999 | 912.55 | 1.4486
x2 = 0.5999 | 903.8 | 1.4586
x2 = 0.7 | 895.3 | 1.4679
x2 = 0.8 | 887.18 | 1.477
x2 = 0.8998 | 879.76 | 1.4864
x2 = 0.95 | 876.36 | 1.4916

CC#N [acetonitrile]
Conditions | mass density [kg/m3] | refractive index
[1] | 776.64 | –
[2] | – | 1.34143

CC#N [acetonitrile] + Cc1ccccc1
Conditions | mass density, [3] [kg/m3] | refractive index, [4]
x2 = 0.0499 | 784.94 | 1.3557
x2 = 0.1 | 792.57 | 1.3686
x2 = 0.2 | 806.07 | 1.3917
x2 = 0.3 | 817.61 | 1.412
x2 = 0.4 | 827.52 | 1.4308
x2 = 0.4999 | 835.99 | 1.4457
x2 = 0.6 | 843.26 | 1.458
x2 = 0.6999 | 849.43 | 1.4683
x2 = 0.8001 | 854.74 | 1.4785
x2 = 0.9 | 858.99 | 1.487
x2 = 0.9498 | 860.78 | 1.4907

CC#N [acetonitrile] + c1ccccc1
Conditions | mass density, [3] [kg/m3] | refractive index, [4]
x2 = 0.05 | 784.35 | 1.3523
x2 = 0.1 | 791.68 | 1.3638
x2 = 0.2 | 805.24 | 1.3823
x2 = 0.2998 | 817.45 | 1.402
x2 = 0.4001 | 828.54 | 1.4217
x2 = 0.4999 | 838.46 | 1.4378
x2 = 0.6002 | 847.41 | 1.4531
x2 = 0.7004 | 855.36 | 1.466
x2 = 0.7997 | 862.34 | 1.4789
x2 = 0.9002 | 868.48 | 1.4892
x2 = 0.9506 | 871.14 | 1.4929

c1ccccc1 [benzene]
Conditions | mass density [kg/m3] | refractive index
[1] | 873.73 | –
[2] | – | 1.49749

CCCCCCCCCCCCCCCC [hexadecane]
Conditions | mass density [kg/m3] | refractive index
[1] | 770.3 | –
[2] | – | 1.43225

Cc1ccccc1 [toluene]
Conditions | mass density [kg/m3] | refractive index
[1] | 862.34 | –
[2] | – | 1.49367
